Measured values reported in patent US12054562B2, “Cell-permeable inhibitory agent and methods of use thereof in treatment of cognitive and mood disorders” (priority 2015, dated 2024).

Experiments:
[1] = tested on: α5GABAA receptor cell-surface expression; assay: Receptor cell-surface ELISA assay in cultured hippocampal neurons; assay type: cell-based, mouse; settings: for etomidate-induced increase in α5GABAA receptor surface expression: peptide 2 μM, 24 hrs, astrocyte-conditioned medium (etomidate 1 μM, 1 hr)
Procedure: This experimental cell culture model was used to test the effects of the inhibitory peptide on an overexpression of α5GABAA receptors on the surface of neurons. The medium from astrocytes that were treated with etomidate (1 μM, 1 hr) (conditioned medium) was collected, and the medium bathing cultured hippocampal neurons was exchanged with the astrocyte-conditioned medium. The cells were incubated at 37° C., 5% CO2 with the peptide or scramble peptide (2 μM). After 24 hrs incubation, the cells were used for receptor cell-surface ELISA assay. The cells were fixed in 4% paraformaldehyde for 20 min in the presence (permeabilized) or absence (non-permeabilized) of 1% Triton-X100. The cells, after 3 times wash with cold PBS and blocked with 5% bovine album solution, were incubated with a α5 antibody (Santa Cruz Biotech Inc.) at 4° C. overnight. The next day the cells were thoroughly washed with PBS and incubated with the horseradish peroxidase (HRP)-conjugated secondary antibody for 2 hrs. With HRP substrate added and color developed in the medium, the results were determined with microplate reader.
The cell surface expression of α5 subunit was presented as the ratio of the colorimetric reading under non-permeabilized conditions to those permeabilized conditions. Consistent with the previous report, etomidate increases α5GABAA receptor surface expression. This increase was blocked by the specific peptide, but not the scramble peptide (FIG. 6A).
For astrocyte culture, cortical astrocytes were isolated from embryonic day 18 (E18) mouse embryos. Cells were allowed to grow to confluence in MEM and 10% fetal bovine serum (FBS; Life Technologies, Grand Island, New York) for 14 d. Cells were then enzymatically dissociated with trypsin-EDTA (0.05%; Life Technologies, Grand Island, New York), and passaged three times to obtain a nearly pure astrocytic culture. Astrocytes were then plated at a density of 25,000 cells per dish. […]

[2] = tested on: GABAA receptor-mediated tonic current in hippocampal neurons; assay: Whole-cell voltage-clamp recordings of tonic current in astrocyte-neuron co-cultures; assay type: cell-based, mouse; settings: for tonic current: neurons grown in co-cultures
radixin = assay: Western blot of radixin phosphorylation in hippocampus of treated mice; assay type: in vivo, mouse; settings: etomidate 8 mg/kg, i.p., hippocampi 24 hrs later
Procedure: We next asked whether injection of inhibitory peptide, when administered to mice in vivo by I.P. injection, reduced the level of α5GABAA receptors expressed in the hippocampus. To test whether the peptide reduces α5GABAA receptor cell-surface expression in vivo, we took advantage of a mouse model that we developed recently (Zurek, et al., 2014), in which up-regulation of α5GABAA receptor cell surface expression causes memory deficits. Adult mice (22-25 g) were treated with etomidate (8 mg/kg, i.p.), and sacrificed 24 hrs later according to a protocol approved by the Animal Care Committee of the University of Toronto. The hippocampi were collected and subject to experiments. We first measured the level of radixin phosphorylation, because radixin phosphorylation is required for the recruitment of α5GABAA receptors to extrasynaptic sites of the neurons (Loebrich et al., 2006; Hausrat et al., 2015). The antibody against threonine at 564 of radixin, which is specific for radixin phosphorylation involving α5GABAA receptor extra-synaptic trafficking, was used for these studies (Choii et al., 2015; Hausrat et al., 2015). […] We next examined whether the inhibitory peptide prevented α5GABAA receptor from trafficking to surface membrane in vivo by studying ex vivo brain slices. […]

[3] = tested on: etomidate-induced memory deficits in mice; assay: Novel object recognition task, prevention paradigm; assay type: in vivo, mouse; settings: Etom 8 mg/kg i.p., NOR next day
From the text: The novel object recognition task involves the presentation of two identical objects for visual inspection (in the case of humans and non-human primates) and exploration in the case of rodents. After a delay, one of the original objects is presented together with a new (novel) object. Humans and animals normally spend time more time looking at (or in the case of mice, exploring) the novel object. Indeed, the test relies on the innate preference of humans and animals for novelty. The inspection or interaction time differs only if the familiar object is recognized. Otherwise, the subject spends an equal amount of time inspecting both objects. […]
In the present study, mice were handled two times a day, 5 min each before start of behavioral experiments. Object recognition was assessed in a circle opaque chamber with the diameter of 38.5 cm in a regular lit room. […] Movement and interaction with the objects was recorded with a video camera that was mounted above the chamber. The exploratory behavior and mouse activity was analyzed blindly by a person with a good training and the software EthoVision, XT v11.5 provided by the Noldus Information Tech Inc., (Leesburg VA, USA). […] Memory was assessed by measuring the novelty preference ratio (i.e., the ratio of time spent exploring the novel object to the time spent exploring both objects). […]

[4] = target: T1, α5 subunit-radixin interaction (Mus musculus, UniProt P26043); assay: Co-immunoprecipitation and Western blot of α5 subunit-radixin coupling in hippocampal tissue lysate; assay type: binding; settings: 20 μM peptide without TAT sequence, one hour incubation
T1 construct: tissue lysate prepared from the hippocampus of adult mice; from tissue; host or cells: hippocampus of adult mice (C57BL/6J×SvEv)
T1 sequence (P26043 whole entry): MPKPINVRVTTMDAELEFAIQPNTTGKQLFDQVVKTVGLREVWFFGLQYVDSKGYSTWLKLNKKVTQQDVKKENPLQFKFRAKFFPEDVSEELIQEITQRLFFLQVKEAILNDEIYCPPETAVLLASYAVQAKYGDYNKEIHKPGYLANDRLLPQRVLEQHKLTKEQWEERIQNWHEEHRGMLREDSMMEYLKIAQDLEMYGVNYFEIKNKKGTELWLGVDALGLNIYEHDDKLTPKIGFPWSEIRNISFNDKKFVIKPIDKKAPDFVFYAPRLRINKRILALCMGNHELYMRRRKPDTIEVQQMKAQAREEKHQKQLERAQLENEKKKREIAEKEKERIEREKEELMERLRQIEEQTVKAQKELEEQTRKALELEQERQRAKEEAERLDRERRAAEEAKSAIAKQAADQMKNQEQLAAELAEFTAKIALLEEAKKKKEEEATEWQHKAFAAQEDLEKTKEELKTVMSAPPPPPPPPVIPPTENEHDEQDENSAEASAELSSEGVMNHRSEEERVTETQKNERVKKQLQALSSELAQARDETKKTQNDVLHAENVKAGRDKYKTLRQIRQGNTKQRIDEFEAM
Procedure: The experiments used tissue lysate prepared from the hippocampus of adult mice (C57BL/6J×SvEv, 2-4 month old, male). Hippocampal tissue was homogenized in ice-cold RIPA buffer (20 mM Tris-HCL, pH 7.5, 150 mM NaCl, 1 mM Na2EDTA, 1 mM EGTA, 1% NP-40, 1% sodium deoxycholate, 2.5 mM sodium pyrophosphate, 1 mM β-glycerophosphate) supplemented with 1 mM sodium orthovanadate and 1% protease inhibitor cocktail and 1% phosphatase inhibitor cocktail (Roche Diagnostics, GmbH, Manheim Germany). The tissue lysate was subsequently spun at 14,000 rpm for 30 min with the Microfuge 22R Centrifuge (Beckman Coulter™, Brea, California, US). The supernatant was collected and frozen at −20 C°. The next day, the supernatant, after thawing, was re-centrifuged at 14,000 rpm for another 30 min to clear the potential undissolved or pellet substances. After spinning twice, the supernatant was collected for subsequent experiments.
One hour following the incubation, the antibodies (2-4 μg) against either α5 subunit (cat #sc—31417, Santa Cruz Biotechnology, Inc., 10410 Finnell St. Dallas, TX, 75220, USA) or radixin (cat #ab91312, Abcam Inc., c/o 913860, PO Box 4090 Stn A, Toronto, ON M5W 0E9), or 4 μg of non-specific IgG protein (cat #sc—2028, Santa Cruz Biotechnology, Inc., 10410 Finnell St. Dallas, TX, 75220, USA), were added to the lysate solution. […]

CCOC(=O)c1cncn1[C@H](C)c1ccccc1 [etomidate]
α5GABAA receptor surface expression ([1]; medium from astrocytes treated with etomidate 1 μM, 1 hr, 24 hrs incubation): increases | amplitude of the tonic current ([2]; etomidate 1 μM, 1 h, measured 24 h after treatment): caused an increase | radixin phosphorylation (pThr564) (radixin): increases | total radixin protein level (radixin): does not alter | preference for the novel object (NOR) [3]: showed no preference

FC(F)OC(Cl)C(F)(F)F (stereo not shown) [isoflurane]
tonic current ([2]; ISO, 250 μM): persistent increase

Cc1ncc2n1-c1ccc(Cl)cc1C(c1ccccc1F)=NC2 [midazolam]
tonic current ([2]; MDZ, 200 nM): persistent increase

CC(C)c1cccc(C(C)C)c1O [propofol]
tonic current ([2]; Prop, 3 μM): persistent increase

FCOC(C(F)(F)F)C(F)(F)F [sevoflurane]
tonic current ([2]; SEVO, 266 μM): persistent increase

AWDGKKAL (listed as Homo sapiens) [Peptide C8, N-terminal truncated peptide, positions 350-357]
etomidate-induced increase in α5GABAA receptor surface expression [1]: prevented

DGKKAL (listed as Homo sapiens) [Peptide C6, N-terminal truncated peptide, positions 352-357]
etomidate-induced increase in α5GABAA receptor surface expression [1]: did not

GWAWDGKKAL (listed as Homo sapiens) [Peptide C10, N-terminal truncated peptide, positions 348-357]
etomidate-induced increase in α5GABAA receptor surface expression [1]: prevented

KKAL (listed as Homo sapiens) [Peptide C4, N-terminal truncated peptide, positions 354-357]
etomidate-induced increase in α5GABAA receptor surface expression [1]: did not

KRGWAWDGKKAL (listed as Homo sapiens) [α5pΔN4]
etomidate-induced increase in α5GABAA receptor surface expression [1]: retains the inhibitory function

NYFTKRGWAWDG (listed as Homo sapiens) [α5pΔC4]
etomidate-induced increase in α5GABAA receptor surface expression [1]: lost the inhibitory function

TYFGRKNALWKAWKGD (Scramble peptide) [reference compound]
association between α5 subunit and radixin [4]: did not reduce this association
